Consider 61 compounds from patent US10111875B2, “Pyrrolopyrimidine compounds and uses thereof” (HUTCHISON MEDIPHARMA LIMITED, priority 2010, dated 2018).

SMILES strings stand for the structures.

The target in one test is Recombinant human JAK1 catalytic domain (Homo sapiens (Human), UniProt P23458). Kind of test: JAK1 kinase assay (Z'-LYTE Tyr 6 Peptide). Format: biochemical. The note with it: JAK1 kinase assay, 0.3 uM concentration; read-out: inhibition percentage (IR %). How it is done: JAK1/2/3 kinase assay are performed in vitro using Kit-Tyr 6 Peptide (Invitrogen, Cat. No. PV4122). TYK2 kinase assay are performed in vitro using Z′-LYTE™ Kinase Assay Kit-Tyr 3 Peptide (Invitrogen, Cat. No. PV3192). […] All compounds are initially tested at 8 different concentrations (1 μM down to 0.0003 μM) using a 1:3 serial dilution scheme.
Sequence of Recombinant human JAK1 catalytic domain (P23458 875-1153): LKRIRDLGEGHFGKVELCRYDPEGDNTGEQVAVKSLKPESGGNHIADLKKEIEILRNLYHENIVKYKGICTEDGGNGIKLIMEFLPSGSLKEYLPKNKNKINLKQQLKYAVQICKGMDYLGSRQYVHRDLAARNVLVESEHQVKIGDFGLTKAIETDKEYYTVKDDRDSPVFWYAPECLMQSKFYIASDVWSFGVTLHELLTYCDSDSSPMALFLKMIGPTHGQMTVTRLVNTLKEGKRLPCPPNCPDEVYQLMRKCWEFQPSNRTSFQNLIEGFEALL
`CN(c1ccc(C#N)cn1)[C@@H]1CCN(c2ncnc3[nH]ccc23)C1` [Compound 71]: the inhibition at 0.3 µM was in the range of 50 to 100%.

Regarding `CN(c1ccc(S(=O)(=O)N2CCCC2)cn1)[C@@H]1CCN(c2ncnc3[nH]ccc23)C1` [Compound 247], the inhibition at 0.3 µM fell in the range of 50 to 100%. As to `CN(c1cccc(C#N)n1)[C@@H]1CCN(c2ncnc3[nH]ccc23)C1` [Compound 91], the inhibition at 0.3 µM lay in the range of 50 to 100%. Regarding `C#CCN(C1CCCC1)[C@@H]1CCN(c2ncnc3[nH]ccc23)C1` [Compound 39, (R)—N-cyclopentyl-N-(prop-2-ynyl)-1-(7H-pyrrolo[2,3-d]pyrimidin-4-yl)pyrrolidin-3-amine], the inhibition at 0.3 µM fell in the range of 20 to 50%.

On to `CN(c1c(F)cc(C#N)cc1F)[C@@H]1CCN(c2ncnc3[nH]ccc23)C1` [Compound 108], for which the inhibition at 0.3 µM lay within 50 to 100%. `CN(c1ccc(NS(=O)(=O)Cc2ccc(Cl)cc2)cn1)[C@@H]1CCN(c2ncnc3[nH]ccc23)C1` [Compound 225]: the inhibition at 0.3 µM was 50 to 100%.

With `CN(c1ccc(NS(=O)(=O)Cc2ccc(F)cc2)cn1)[C@@H]1CCN(c2ncnc3[nH]ccc23)C1` [Compound 221], the inhibition at 0.3 µM lay in the range of 20 to 50%. Consider `CN(C(=O)Nc1ccc(C#N)cc1)[C@@H]1CCN(c2ncnc3[nH]ccc23)C1` [Compound 17], for which the inhibition at 0.3 µM lay in the range of 50 to 100%. In the case of `CN(c1ncc(C#N)s1)[C@@H]1CCN(c2ncnc3[nH]ccc23)C1` [Compound 95], the inhibition at 0.3 µM lay within 50 to 100%. In the case of `N#CCN(C1CCCC1)[C@@H]1CCN(c2ncnc3[nH]ccc23)C1` [Compound 45], the inhibition at 0.3 µM was in the range of 50 to 100%. As for `CN(c1ccc(NS(=O)(=O)Cc2ccccc2Cl)cn1)[C@@H]1CCN(c2ncnc3[nH]ccc23)C1` [Compound 223], the inhibition at 0.3 µM was in the range of 50 to 100%.

Regarding `CN([C@@H]1CCN(c2ncnc3[nH]ccc23)C1)S(=O)(=O)c1cccc(C#N)c1` [Compound 10], the inhibition at 0.3 µM lay in the range of 50 to 100%.

For the compound `CN(c1ncccc1C#N)[C@@H]1CCN(c2ncnc3[nH]ccc23)C1` [Compound 159], the inhibition at 0.3 µM is 50 to 100%. Regarding `CN(c1ccc([N+](=O)[O-])c(N)n1)[C@@H]1CCN(c2ncnc3[nH]ccc23)C1` [Compound 78], the inhibition at 0.3 µM fell in the range of 20 to 50%. In the case of `C[C@@H](O)CNS(=O)(=O)c1ccc(N(C)[C@@H]2CCN(c3ncnc4[nH]ccc34)C2)nc1` [Compound 244], the inhibition at 0.3 µM lay within 50 to 100%. Same read-out and setting: the figure for `CN(c1ncc(Br)cc1C#N)[C@@H]1CCN(c2ncnc3[nH]ccc23)C1` [Compound 89] is 50 to 100%; for `CN(c1ccc(C(=O)NC2c3ccccc3C[C@H]2O)cc1F)[C@@H]1CCN(c2ncnc3[nH]ccc23)C1` (single isomer, unassigned) [Compound 204] it is 50 to 100%. Consider `CC(C)[C@H](CO)NC(=O)c1ccc(N(C)[C@@H]2CCN(c3ncnc4[nH]ccc34)C2)c(F)c1` [Compound 180], for which the inhibition at 0.3 µM is 50 to 100%.

With `CN(c1ncc([N+](=O)[O-])cc1Cl)[C@@H]1CCN(c2ncnc3[nH]ccc23)C1` [Compound 74], the inhibition at 0.3 µM lay in the range of 50 to 100%.

On to `COC[C@H](NC(=O)c1ccc(N(C)[C@@H]2CCN(c3ncnc4[nH]ccc34)C2)nc1)c1ccccc1` [Compound 209], for which the inhibition at 0.3 µM was 50 to 100%. As for `CN(c1ccc(-c2nn[nH]n2)cn1)[C@@H]1CCN(c2ncnc3[nH]ccc23)C1` [Compound 160, (R)—N-(1-(7H-pyrrolo[2,3-d]pyrimidin-4-yl)pyrrolidin-3-yl)-N-methyl-5-(2H-tetrazol-5-yl)pyridin-2-amine], the inhibition at 0.3 µM lay within 20 to 50%. In the case of `CN(c1ccc([N+](=O)[O-])cn1)[C@@H]1CCN(c2ncnc3[nH]ccc23)C1` [Compound 70], the inhibition at 0.3 µM lay in the range of 50 to 100%.

In the case of `CN(C(=O)CCc1c(Cl)cccc1Cl)[C@@H]1CCN(c2ncnc3[nH]ccc23)C1` [Compound 21], the inhibition at 0.3 µM was in the range of 50 to 100%. As for `CN(c1ccc(C(=O)NC[C@H](O)c2ccccc2)cc1F)[C@@H]1CCN(c2ncnc3[nH]ccc23)C1` [Compound 202], the inhibition at 0.3 µM lay in the range of 50 to 100%. `CN(c1ccc(C#N)cc1F)[C@@H]1CCN(c2ncnc3[nH]ccc23)C1` [Compound 103, (R)-4-((1-(7H-pyrrolo[2,3-d]pyrimidin-4-yl)pyrrolidin-3-yl)(methyl)amino)-3-fluorobenzonitrile]: the inhibition at 0.3 µM lay in the range of 50 to 100%. As for `CN(c1ccc(S(=O)(=O)NC2CC2)cn1)[C@@H]1CCN(c2ncnc3[nH]ccc23)C1` [Compound 236], the inhibition at 0.3 µM was 50 to 100%. Still for that read-out and setting: the value for `CN(c1cc(F)cc(F)c1C#N)[C@@H]1CCN(c2ncnc3[nH]ccc23)C1` [Compound 118] was 20 to 50%; that for `CN(C(=O)c1ccc(N(C)[C@@H]2CCN(c3ncnc4[nH]ccc34)C2)nc1)c1ccc(F)cc1` [Compound 178] was 50 to 100%. Turning to `CN(c1ccc(S(=O)(=O)NCC2CC2)cn1)[C@@H]1CCN(c2ncnc3[nH]ccc23)C1` [Compound 235], the inhibition at 0.3 µM was in the range of 50 to 100%. Take `N#CCN(C1CC1)[C@@H]1CCN(c2ncnc3[nH]ccc23)C1` [Compound 55]: the inhibition at 0.3 µM lay in the range of 50 to 100%. Consider `CN(C1CCCC1)[C@@H]1CCN(c2ncnc3[nH]ccc23)C1` [Compound 53], for which the inhibition at 0.3 µM lay in the range of 50 to 100%. Same read-out and setting: the value for `CN(c1ncc(C#N)cc1Cl)[C@@H]1CCN(c2ncnc3[nH]ccc23)C1` [Compound 83] was 50 to 100%; that for `C#CCN(C1CCCCC1)[C@@H]1CCN(c2ncnc3[nH]ccc23)C1` [Compound 54] was 20 to 50%. Consider `CN(c1ccc(S(=O)(=O)N2CCNCC2)cn1)[C@@H]1CCN(c2ncnc3[nH]ccc23)C1` [Compound 251], for which the inhibition at 0.3 µM fell in the range of 50 to 100%. As for `CN(C(=O)N1CCCC1C(F)(F)F)[C@@H]1CCN(c2ncnc3[nH]ccc23)C1` (stereo partly shown) [Compound 59], the inhibition at 0.3 µM lay within 50 to 100%.

Take `CN(c1ccnc(Cl)n1)[C@@H]1CCN(c2ncnc3[nH]ccc23)C1` [Compound 63, (R)—N-(1-(7H-pyrrolo[2,3-d]pyrimidin-4-yl)pyrrolidin-3-yl)-2-chloro-N-methylpyrimidin-4-amine]: the inhibition at 0.3 µM is 50 to 100%. Consider `CN(c1ccc(C#N)c(C#N)c1)[C@@H]1CCN(c2ncnc3[nH]ccc23)C1` [Compound 113], for which the inhibition at 0.3 µM lay within 20 to 50%. Turning to `CN(c1ccc(C#N)cc1-c1cccc(C#N)c1)[C@@H]1CCN(c2ncnc3[nH]ccc23)C1` [Compound 148], the inhibition at 0.3 µM is 20 to 50%. `CN(c1nc(Cl)c(C#N)cc1F)[C@@H]1CCN(c2ncnc3[nH]ccc23)C1` [Compound 87]: the inhibition at 0.3 µM is 50 to 100%.

In the case of `CN([C@@H]1CCN(c2ncnc3[nH]ccc23)C1)S(=O)(=O)c1cccc([N+](=O)[O-])c1` [Compound 12], the inhibition at 0.3 µM lay in the range of 50 to 100%. On the same count and under the same terms, the figure for `CN(c1ccc(C#N)cn1)[C@H]1CCN(c2ncnc3[nH]ccc23)C1` [Compound 102] is 50 to 100%; for `CN(c1ccc(C#N)cc1C(F)(F)F)[C@@H]1CCN(c2ncnc3[nH]ccc23)C1` [Compound 109] it is 20 to 50%; for `CN(C)C(=O)c1ccc(N(C)[C@@H]2CCN(c3ncnc4[nH]ccc34)C2)nc1` [Compound 173] it is 20 to 50%. As to `CN(C(=O)N1CCC[C@@H]1C#N)[C@@H]1CCN(c2ncnc3[nH]ccc23)C1` [Compound 38], the inhibition at 0.3 µM was 50 to 100%. Take `CN([C@@H]1CCN(c2ncnc3[nH]ccc23)C1)S(=O)(=O)c1c(F)cccc1F` [Compound 43]: the inhibition at 0.3 µM was 20 to 50%. On to `CN(c1ccc(NS(=O)(=O)Cc2cccc(F)c2)cn1)[C@@H]1CCN(c2ncnc3[nH]ccc23)C1` [Compound 220], for which the inhibition at 0.3 µM lay in the range of 50 to 100%. `COCC(=O)N(C)[C@@H]1CCN(c2ncnc3[nH]ccc23)C1` [Compound 4]: the inhibition at 0.3 µM lay in the range of 20 to 50%. For the compound `CCOc1cnc(N(C)[C@@H]2CCN(c3ncnc4[nH]ccc34)C2)cn1` [Compound 136], the inhibition at 0.3 µM lay within 50 to 100%. On the same count and under the same terms, the value for `CCNS(=O)(=O)c1ccc(N(C)[C@@H]2CCN(c3ncnc4[nH]ccc34)C2)nc1` [Compound 240] was 50 to 100%. For the compound `CN(c1ccc(-c2cccs2)cn1)[C@@H]1CCN(c2ncnc3[nH]ccc23)C1` [Compound 147], the inhibition at 0.3 µM lay in the range of 50 to 100%. `CN(c1ccc(Br)cn1)[C@@H]1CCN(c2ncnc3[nH]ccc23)C1` [Compound 68]: the inhibition at 0.3 µM was 50 to 100%. For `CN(c1ccc(C#N)nn1)[C@@H]1CCN(c2ncnc3[nH]ccc23)C1` [Compound 60], the inhibition at 0.3 µM was in the range of 50 to 100%. Take `CN(c1ccc(S(=O)(=O)NC2CCOCC2)cn1)[C@@H]1CCN(c2ncnc3[nH]ccc23)C1` [Compound 259]: the inhibition at 0.3 µM was 50 to 100%. Turning to `CN(c1cnc(-c2ccn[nH]2)cn1)[C@@H]1CCN(c2ncnc3[nH]ccc23)C1` [Compound 152], the inhibition at 0.3 µM lay in the range of 50 to 100%.

Consider `CN(C(=O)Nc1ccc(C(F)(F)F)cc1)[C@@H]1CCN(c2ncnc3[nH]ccc23)C1` [Compound 30], for which the inhibition at 0.3 µM is 50 to 100%.

For the compound `Cc1cc(N(C)[C@@H]2CCN(c3ncnc4[nH]ccc34)C2)ncc1[N+](=O)[O-]` [Compound 77], the inhibition at 0.3 µM lay within 50 to 100%. Take `CN([C@@H]1CCN(c2ncnc3[nH]ccc23)C1)S(=O)(=O)C1CC1` [Compound 57]: the inhibition at 0.3 µM was 20 to 50%. Take `CN([C@@H]1CCN(c2ncnc3[nH]ccc23)C1)S(=O)(=O)C1CCCCC1` [Compound 28]: the inhibition at 0.3 µM was 50 to 100%.

As for `COCC1CCCN1S(=O)(=O)c1ccc(N(C)[C@@H]2CCN(c3ncnc4[nH]ccc34)C2)nc1` (stereo partly shown) [Compound 249], the inhibition at 0.3 µM is 50 to 100%. Turning to `CN(c1cnc(NCC2CC2)cn1)[C@@H]1CCN(c2ncnc3[nH]ccc23)C1` [Compound 138], the inhibition at 0.3 µM fell in the range of 50 to 100%.

Staying with this test, now noted: read-out: inhibition percentage (IR %).
For `CCS(=O)(=O)Nc1ccc(N(C)[C@@H]2CCN(c3ncnc4[nH]ccc34)C2)nc1` [Compound 210, (R)—N-6-((1(7H-pyrrolo[2,3-d]pyrimidin-4-yl)pyrrolidin-3-yl)(methyl)(amino)pyridin-3-yl)ethanesulfonamfide], the inhibition at 0.3 µM fell in the range of 50 to 100%.

By inhibition is commonly meant how much of the control response was suppressed.
